From US20160193316A1 (priority 1994, published 2016)
pIC50: −log10 of the molar value. Where two headings read alike, the source gives them in different places. No end group written: not given here.

What was measured:
HLA-A*3101 = HLA-A*3101 (Homo sapiens, UniProt P04439, A270S/D185E/E176V/E277Q/F33T/G231S/G80R/H175R/I121M/I218V/I322F/K168Q/L300P/L318F/M331R/P217A/Q94H/R138Q/T323A/T345S/T97I/V358M); test: HLA class I peptide binding assay
HLA-A*3301 = HLA-A*3301 (Homo sapiens, UniProt P04439, A270S/D185E/E176V/E277Q/E87N/F33T/G231S/H175R/I121M/I218V/I322F/K168Q/K210R/L300P/L318F/M331R/P217A/Q86R/Q94H/R138Q/T323A/T345S/T97I/V358M/Y195H); test: HLA class I peptide binding assay
[1] = test system: HLA-A3-supertype molecules (A3, A11, A*3101, A*3301, A*6801); assay type: binding, human
HLA-A*1101 = HLA-A*1101 (Homo sapiens, UniProt P04439, A114D/D185E/E176A/F33Y/L180Q/S129P/T187R); test: HLA class I peptide binding assay
DRB1*0802 (DR8w2) = target: T1, DRB1*0802 (DR8w2) (Homo sapiens, UniProt P01903+P01911, A100R/A103L/A169T/F76Y/H45Y/I96F/K41T/L162R/M171V/P40S/Q125H/Q178H/Q39Y/Q99D/R218S/R42G/S66Y/V115G/W38E); test: biochemical; assay type: binding
T1 construct: endogenous in cells; host or cells: OLL

DRB1*0901 (DR9) = target: T2, DRB1*0901 (DR9) (Homo sapiens, UniProt P01903+P01911, A100R/A103E/D57H/D86V/F55Y/F60I/F76Y/I96F/K127E/L162R/M171V/P40D/Q125H/Q99R/R33Q/R42F/S133A/S66N/T210M/V115G/W38K/Y107V/Y59G/Y89S); test: biochemical; assay type: binding
T2 construct: endogenous in cells; host or cells: HID

DRB1*0701 (DR7) = target: T3, DRB1*0701 (DR7) (Homo sapiens, UniProt P01903+P01911, A100R/A102G/A103Q/D57E/D86V/E43K/F76Y/K127E/L162R/M171V/P40G/Q125H/Q99D/R33Q/R42Y/R54Q/S133A/S66F/T210M/V115G/Y107V/Y59L/Y89S); test: biochemical; assay type: binding
T3 construct: endogenous in cells; host or cells: Pitout

DRB1*0301 (DR3) = target: T4, DRB1*0301 (DR3) (Homo sapiens, UniProt P01903+P01911, A100K/A102G/A103R/A169T/F55Y/I96L/K41T/L162R/M171V/P40S/Q125H/Q178H/Q39Y/R42S/S66N/T106N/T262R/W38E/Y61H); test: HLA class II peptide binding assay (pH 4.5)
T4 construct: endogenous in cells; host or cells: MAT

DRB1*1201 (DR5w12) = target: T5, DRB1*1201 (DR5w12) (Homo sapiens, UniProt P01903+P01911, A100R/A169T/D57E/D86V/F55L/H45Y/K41T/L162R/M171V/P40S/Q125H/Q178H/Q39Y/Q99D/R42G/S66L/T262R/V114A/V67L/W38E/Y59H/Y61H/Y89S); test: HLA class II peptide binding assay; settings: Table XIXb; DR5w12
T5 construct: endogenous in cells; host or cells: Herluf

HLA-A*2402 = HLA-A*2402 (Homo sapiens, UniProt P04439, D101N/D140Y/D185E/E176V/E190D/F33S/G103R/G107R/I119L/I121M/I306V/K335N/L105A/L180Q/L300P/N151K/N90K/Q86E/Q94H/R106L/R138H/R89G/T104I/T345S/V100E/W191G/Y123F); test: HLA class I peptide binding assay; settings: unit not given
DRB1*0401 (DR4w4) = target: T6, DRB1*0401 (DR4w4) (Homo sapiens, UniProt P01903+P01911, A100K/A169T/F76Y/I96L/K127E/L162R/M171V/N62H/P40V/Q125Y/R42H/S133A/S149N/S66Y/V115G/V209L/W38E); test: HLA class II peptide binding assay; settings: Table XIXb; DR4w4
T6 construct: endogenous in cells; host or cells: Preiss

DRB1*0405 (DR4w15) = target: T7, DRB1*0405 (DR4w15) (Homo sapiens, UniProt P01903+P01911, A100R/A169T/D86S/F76Y/I96L/K127E/L162R/M171V/N62H/P40V/Q125Y/R42H/S133A/S149N/S66Y/V115G/V209L/W38E); test: HLA class II peptide binding assay; settings: Table XIXb; DR4w15
T7 construct: endogenous in cells; host or cells: KT3

DRB1*0101 (DR1) = target: T8, DRB1*0101 (DR1) (Homo sapiens, UniProt P01903+P01911, A100R/D57E/F55L/F60I/F76Y/I96L/L162R/M171V/P40L/Q125E/R42F/V115G/Y59C); test: HLA class II peptide binding assay; settings: Table XIXb, Malaria Super Motif Peptides With Binding Data; DR1
T8 construct: endogenous in cells; host or cells: LG2

DRB1*1101 (DR5w11) = target: T9, DRB1*1101 (DR5w11) (Homo sapiens, UniProt P01903+P01911, A100R/A169T/A87E/I96F/K41T/L162R/M171V/P40S/Q125H/Q178H/Q39Y/Q99D/R42S/S66Y/T262R/V115G/W38E); test: biochemical; assay type: binding
T9 construct: endogenous in cells; host or cells: Sweig

DRB5*0101 (DR2w2β2) = target: T10, DRB5*0101 (DR2w2β2) (Homo sapiens, UniProt P01903+Q30154); assay type: binding
T10 construct: expressed in transfected cells; host or cells: L416.3 (fibroblasts) or GM3107

DRB1*1302 (DR6w19) = target: T11, DRB1*1302 (DR6w19) (Homo sapiens, UniProt P01903+P01911, A100E/A169T/K41T/L162R/M171V/P40S/Q125H/Q178H/Q39Y/Q99D/R42S/S66N/T262R/V115G/W38E/Y61H); test: HLA class II peptide binding assay; settings: Table XIXb; DR6w19
T11 construct: endogenous in cells; host or cells: H0301

DRB1*1501 (DR2w2β1) = target: T12, DRB1*1501 (DR2w2β1) (Homo sapiens, UniProt P01903+P01911); test: HLA class II peptide binding assay; settings: Table XIXb; DR2w2β1
T12 construct: expressed in transfected cells; host or cells: L466.1 (fibroblasts)

T helper lymphocytes = settings: regardless of HLA type, WO 95/07707; cited from earlier work
HLA-A*0301 = target: T13, HLA-A*0301 (Homo sapiens, UniProt P04439); test: HLA class I peptide binding assay; settings: Malaria A3 motif peptides, Table XVI; binding value to HLA-A*0301, unit not given
T13 construct: endogenous in cells; host or cells: GM3107

HLA-A*0101 = HLA-A*0101 (Homo sapiens, UniProt P04439, A114D/A174V/A182V/D101N/D185E/E176A/E190D/L180R/Q94H/R68K/S129P/T187R/V100A/V91M/W191G); assay type: binding
HLA-B*0702 = target: T14, HLA-B*0702 (Homo sapiens, UniProt P01889); test: HLA class I peptide binding assay; settings: Malaria B07 super motif peptides; binding value, no unit
T14 construct: endogenous in cells; host or cells: GM3107

## FILVNLLIFH [Peptide 1167.46]
HLA-A*3101
  pIC50: 5.71
HLA-A*3301
  pIC50: 6.40
[1]; A3-supermotif CTL epitopes, five A3-supertype alleles (Table XXVII)
  Alleles bound: 2
[1]; A3-supertype peptides tested for binding to A*03, A*11, A*31011, A*3301, A*6801
  Alleles bound: 2
[1]; A3-supertype, tested on A*03, A*11, A*31011, A*3301, A*6801, unfixed parent peptide
  Alleles bound: 2
HLA-A*1101
  pIC50: 5.88

## FYFILVNLL
DRB1*0802 (DR8w2)
  DR8w2 binding data: 0.0010
DRB1*0901 (DR9)
  DR9 binding data: -0.0003
DRB1*0701 (DR7)
  DR7 binding data: 0.0020
DRB1*0301 (DR3); Table XIXb, DR3
  DR3 binding data: -0.0008
DRB1*1201 (DR5w12)
  DR5w12 binding data: 0.0006
HLA-A*2402; HLA class I binding value as printed in column headed A*201 of Table X
  HLA-A24 binding value: 7.5000
HLA-A*2402; HLA-A*2401 binding value as printed
  A*2401 (binding information, Malaria A24 motif peptides): 7.5000
DRB1*0401 (DR4w4)
  DR4w4 binding data: 0.0210
DRB1*0405 (DR4w15)
  DR4w15 binding data: -0.0009
DRB1*0101 (DR1)
  DR1 binding data: 0.0029
DRB1*1101 (DR5w11)
  DR5w11 binding data: 0.0011
DRB5*0101 (DR2w2β2)
  DR2w2β2 binding data: 0.0044
DRB1*1302 (DR6w19)
  DR6w19 binding data: 0.0003
DRB1*1501 (DR2w2β1)
  DR2w2β1 binding data: 0.0040

## aKXVWANTLKAAa
T helper lymphocytes
  Stimulation of T helper lymphocyte response: stimulate the response of T helper lymphocytes from most individuals

## PSDGKCNLY
HLA-A*0301
  A*0301 (binding information): 0.0002
HLA-A*0101
  A*010I: 0.5400
  A*0101 (binding information): 0.5400
HLA-A*1101; Table XVII, malaria A11 motif peptides, binding value unit not given
  A*1101 binding information: 0.0002

## FQDEENIGIY
HLA-A*0101
  A*0101 (binding information): 1.1000

## LPSENERGY
DRB1*0301 (DR3); DR3a motif peptides, unit not given, exemplary 15-mer containing the core sequence
  DR3 binding information: -0.0033
HLA-B*0702
  B*0702 (binding information): 0,0001
HLA-A*0101
  A*0101 (binding information): 0.6700

## HPSDGKCNLY
HLA-B*0702
  B*0702 (binding information): 0.0001
HLA-A*0101
  A*0101 (binding information): 0.0260
